Biological target: T1, hFXR (Homo sapiens, UniProt Q96RI1)
T1 construct: expressed in transfected cells; host or cells: CV-1 cells
T1 sequence (Q96RI1 1-486): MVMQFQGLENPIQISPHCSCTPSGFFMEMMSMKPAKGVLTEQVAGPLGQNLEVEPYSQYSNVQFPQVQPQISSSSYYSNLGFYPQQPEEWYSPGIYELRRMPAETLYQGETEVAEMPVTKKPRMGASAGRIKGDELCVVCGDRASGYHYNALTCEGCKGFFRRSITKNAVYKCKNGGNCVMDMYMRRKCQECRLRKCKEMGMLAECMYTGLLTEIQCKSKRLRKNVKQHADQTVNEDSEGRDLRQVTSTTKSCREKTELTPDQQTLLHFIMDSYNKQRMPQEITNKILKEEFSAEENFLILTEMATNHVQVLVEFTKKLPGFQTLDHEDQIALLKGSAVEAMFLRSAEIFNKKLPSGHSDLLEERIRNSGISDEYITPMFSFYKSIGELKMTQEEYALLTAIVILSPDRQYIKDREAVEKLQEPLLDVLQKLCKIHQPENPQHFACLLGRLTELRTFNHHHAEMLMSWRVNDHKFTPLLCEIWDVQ
T1 sequence (P19793 1-462 partner): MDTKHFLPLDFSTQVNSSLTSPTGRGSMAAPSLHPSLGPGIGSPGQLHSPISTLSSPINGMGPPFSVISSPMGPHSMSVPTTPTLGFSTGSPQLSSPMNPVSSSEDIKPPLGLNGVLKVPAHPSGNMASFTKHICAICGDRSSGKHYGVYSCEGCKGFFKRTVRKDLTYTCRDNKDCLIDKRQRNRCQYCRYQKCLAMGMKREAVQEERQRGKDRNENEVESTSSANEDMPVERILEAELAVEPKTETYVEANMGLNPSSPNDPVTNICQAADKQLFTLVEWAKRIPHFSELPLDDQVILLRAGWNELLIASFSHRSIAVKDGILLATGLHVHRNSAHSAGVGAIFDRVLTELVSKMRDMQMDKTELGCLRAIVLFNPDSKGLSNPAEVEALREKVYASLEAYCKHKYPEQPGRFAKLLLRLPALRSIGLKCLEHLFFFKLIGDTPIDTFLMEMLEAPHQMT
Assay: In Vitro FXR Assay (TK): TK-ECRE-luc reporter in transfected CV-1 cells
Type: cell-based
Conditions: 18 hrs, luminescence, maximum efficacy of <25% of the Fexarmine control classified as '+'
Method in brief: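 Reporter transactivation by hFXR was measured in CV-1 cells carrying hRXR and a TK-ECRE-luc construct, with compound treatment for 18 h before lysis and luminescence detection.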

Question: How did the EC50 turn out when CNC(=O)O[C@H]1CC[C@H](C(=O)N(C[C@H]2CC[C@H](c3ccc(OC)c(C#N)n3)CC2)c2cccc(-c3coc(C4CC4)n3)c2)CC1 [Compound 5.42, trans-4-(((trans-4-(6-Cyano-5-methoxypyridin-2-yl)cyclohexyl)methyl)(3-(2-cyclopropyloxazol-4-yl)phenyl)carbamoyl)cyclohexyl methylcarbamate] was run?
Answer: ≤ 250 nM

Question: CNC(=O)O[C@H]1CC[C@H](C(=O)N(C[C@H]2CC[C@H](c3ccc(OC)c(C)n3)CC2)c2cc(-c3coc(C(C)C)n3)ccn2)CC1 [Compound 5.43, trans-4-((4-(2-Isopropyloxazol-4-yl)pyridine-2-yl)((trans-4-(5-methoxy-6-methylpyridin-2-yl)cyclohexyl)methyl)carbamoyl)cyclohexyl methylcarbamate] was tested. Which EC50 did it give?
Answer: ≤ 250 nM

Question: With CNC(=O)O[C@H]1CC[C@H](C(=O)N(C[C@H]2CC[C@H](c3ccc(OC)c(C#N)n3)CC2)c2cc(-c3coc(C4CC4)n3)ccn2)CC1 [Compound 5.44, trans-4-(((trans-4-(6-Cyano-5-methoxypyridin-2-yl)cyclohexyl)methyl)(4-(2-cyclopropyloxazol-4-yl)pyridine-2-yl)carbamoyl)cyclohexyl methylcarbamate] as the compound, how does the EC50 read?
Answer: ≤ 250 nM

Question: How did the EC50 turn out when CNC(=O)O[C@H]1CC[C@H](C(=O)N(C[C@H]2CC[C@H](c3ccc(OC)c(C#N)c3)CC2)c2cc(-c3coc(C(C)C)n3)ccn2)CC1 [Compound 5.45, trans-4-(((trans-4-(3-Cyano-4-methoxyphenyl)cyclohexyl)methyl)(4-(2-isopropyloxazol-4-yl)pyridine-2-yl)carbamoyl)cyclohexyl methylcarbamate] was run?
Answer: ≤ 250 nM

Question: CNC(=O)O[C@H]1CC[C@H](C(=O)N(C[C@H]2CC[C@H](c3ccc(OC)c(C#N)n3)CC2)c2cccc(-c3coc(C(C)C)n3)c2)CC1 [Compound 5.46, trans-4-(((trans-4-(6-Cyano-5-methoxypyridin-2-yl)cyclohexyl)methyl)(3-(2-isopropyloxazol-4-yl)phenyl)carbamoyl)cyclohexyl methylcarbamate] was tested. Which EC50 did it give?
Answer: ≤ 250 nM

Question: CCNC(=O)O[C@H]1CC[C@H](C(=O)N(C[C@H]2CC[C@H](c3ccc(OC)c(C)n3)CC2)c2cc(-c3coc(C4CC4)n3)ccn2)CC1 [Compound 5.47, trans-4-((4-(2-Cyclopropyloxazol-4-yl)pyridine-2-yl)((trans-4-(5-methoxy-6-methylpyridin-2-yl)cyclohexyl)methyl)carbamoyl)cyclohexyl ethylcarbamate] was tested. Which EC50 did it give?
Answer: ≤ 250 nM

Question: Which EC50 does the source give for COc1ccc([C@H]2CC[C@H](CN(c3cc(-c4coc(C5CC5)n4)ccn3)C(=O)[C@H]3CC[C@H](OC(N)=O)CC3)CC2)nc1C [Compound 5.48, trans-4-((4-(2-Cyclopropyloxazol-4-yl)pyridine-2-yl)((trans-4-(5-methoxy-6-methylpyridin-2-yl)cyclohexyl)methyl)carbamoyl)cyclohexyl carbamate] here?
Answer: ≤ 250 nM

Question: COC(=O)O[C@H]1CC[C@H](C(=O)N(C[C@H]2CC[C@H](c3ccc(OC)c(C)n3)CC2)c2cc(-c3coc(C4CC4)n3)ccn2)CC1 [Compound 5.49, trans-4-((4-(2-Cyclopropyloxazol-4-yl)pyridine-2-yl)((trans-4-(5-methoxy-6-methylpyridin-2-yl)cyclohexyl)methyl)carbamoyl)cyclohexyl methyl carbonate] was tested. Which EC50 did it give?
Answer: ≤ 250 nM

Question: Which EC50 does the source give for CNC(=O)O[C@H]1CC[C@H](C(=O)N(C[C@H]2CC[C@H](c3cnc(OC)c(C)c3)CC2)c2cc(-c3coc(C4CC4)n3)ccn2)CC1 [Compound 5.50, trans-4-((4-(2-Cyclopropyloxazol-4-yl)pyridine-2-yl)((trans-4-(6-methoxy-5-methylpyridin-3-yl)cyclohexyl)methyl)carbamoyl)cyclohexyl methylcarbamate] here?
Answer: ≤ 250 nM

Question: CCc1nc(-c2ccnc(N(C[C@H]3CC[C@H](c4ccc(OC)c(C)n4)CC3)C(=O)[C@H]3CC[C@H](OC(=O)NC)CC3)c2)co1 [Compound 5.51, trans-4-((4-(2-Ethyloxazol-4-yl)pyridin-2-yl)((trans-4-(5-methoxy-6-methylpyridin-2-yl)cyclohexyl)methyl)carbamoyl)cyclohexyl methylcarbamate] was tested. Which EC50 did it give?
Answer: ≤ 250 nM

Question: CNC(=O)O[C@]1(C)CC[C@@H](C(=O)N(C[C@H]2CC[C@H](c3ccc(OC)c(C)c3)CC2)c2cccc(-c3cnn(C(C)C)c3)c2)CC1 [Compound 5.52, trans-4-((3-(1-Isopropyl-1H-pyrazol-4-yl)phenyl)((trans-4-(4-methoxy-3-methylphenyl)cyclohexyl)methyl)carbamoyl)-1-methylcyclohexyl methylcarbamate] was tested. Which EC50 did it give?
Answer: ≤ 250 nM

Question: With CNC(=O)O[C@]1(C)CC[C@H](C(=O)N(C[C@H]2CC[C@H](c3ccc(OC)c(C)c3)CC2)c2cccc(-c3cnn(C(C)C)c3)c2)CC1 [Compound 5.53, cis-4-((3-(1-Isopropyl-1H-pyrazol-4-yl)phenyl)(trans-4-(4-methoxy-3-methylphenyl)cyclohexyl)methyl)carbamoyl)-1-methylcyclohexyl methylcarbamate] as the compound, how does the EC50 read?
Answer: ≤ 250 nM

Question: With COc1ccc([C@H]2CC[C@H](CN(c3cc(-c4coc(C(C)C)n4)ccn3)C(=O)[C@H]3CC[C@H](OC(=O)N4CCOCC4)CC3)CC2)nc1C [Compound 6, trans-4-((4-(2-Isopropyloxazol-4-yl)pyridine-2-yl)((trans-4-(5-methoxy-6-methylpyridin-2-yl)cyclohexyl)methyl)carbamoyl)cyclohexyl morpholine-4-carboxylate] as the compound, how does the EC50 read?
Answer: ≤ 250 nM

Question: With CN(C)c1ccc([C@H]2CC[C@H](CN(c3cccc(-c4cnc(C5CC5)s4)c3)C(=O)[C@H]3CC[C@H](OC(=O)NCCO)CC3)CC2)cn1 [Compound 6.01, 4-((3-(2-Cyclopropylthiazol-5-yl)phenyl) ((trans-4-(6-(dimethylamino)pyridin-3-yl)cyclohexyl)methyl)carbamoyl) cyclohexyl (2-hydroxyethyl)trans-carbamate] as the compound, how does the EC50 read?
Answer: ≤ 250 nM

Question: With COc1ccc([C@H]2CC[C@H](CN(c3cc(-c4cnc(C5CC5)s4)ccn3)C(=O)[C@H]3CC[C@H](OC(=O)NCCO)CC3)CC2)cc1C [Compound 6.02, trans-4-((4-(2-Cyclopropylthiazol-5-yl)pyridin-2-yl)((trans-4-(4-methoxy-3-methylphenyl)cyclohexyl)methyl)carbamoyl)cyclohexyl (2-hydroxyethyl) carbamate] as the compound, how does the EC50 read?
Answer: ≤ 250 nM

Question: For COc1ccc([C@H]2CC[C@H](CN(c3cc(-c4cnc(C(C)C)s4)ccn3)C(=O)[C@H]3CC[C@H](OC(=O)NCCO)CC3)CC2)cc1C [Compound 6.03, trans-4-((4-(2-Isopropylthiazol-5-yl)pyridin-2-yl)((trans-4-(4-methoxy-3-methylphenyl)cyclohexyl)methyl)carbamoyl)cyclohexyl (2-hydroxyethyl) carbamate], which EC50 is on record?
Answer: ≤ 250 nM

Question: For COc1ccc([C@H]2CC[C@H](CN(c3cccc(-c4cnc(C(C)C)s4)c3)C(=O)[C@H]3CC[C@H](OC(=O)NCCO)CC3)CC2)nc1C [Compound 6.04, trans-4-((3-(2-Isopropylthiazol-5-yl)phenyl)((trans-4-(5-methoxy-6-methylpyridin-2-yl)cyclohexyl)methyl)carbamoyl)cyclohexyl (2-hydroxyethyl)carbamate], which EC50 is on record?
Answer: ≤ 250 nM

Question: How did the EC50 turn out when COc1ccc([C@H]2CC[C@H](CN(c3cccc(-c4cnc(C(C)C)s4)c3)C(=O)[C@H]3CC[C@H](OC(=O)NCCCO)CC3)CC2)nc1C [Compound 6.05] was run?
Answer: ≤ 250 nM

Question: Which EC50 does the source give for COc1ccc([C@H]2CC[C@H](CN(c3cccc(-c4cnc(C5CC5)s4)c3)C(=O)[C@H]3CC[C@H](OC(=O)NCCO)CC3)CC2)nc1C#N [Compound 6.06, trans-4-(((trans-4-(6-Cyano-5-methoxypyridin-2-yl)cyclohexyl)methyl) (3-(2-cyclopropylthiazol-5-yl)phenyl)carbamoyl)cyclohexyl (2-hydroxyethyl)carbamate] here?
Answer: ≤ 250 nM

Question: With COc1ccc([C@H]2CC[C@H](CN(c3cccc(-c4cnc(C5CC5)s4)c3)C(=O)[C@H]3CC[C@H](OC(=O)NCCO)CC3)CC2)nc1C [Compound 6.07, trans-4-((3-(2-Cyclopropylthiazol-5-yl)phenyl)((trans-4-(5-methoxy-6-methylpyridin-2-yl)cyclohexyl)methyl)carbamoyl)cyclohexyl (2-hydroxyethyl)carbamate] as the compound, how does the EC50 read?
Answer: ≤ 250 nM

Question: Which EC50 does the source give for CN(C)c1ccc([C@H]2CC[C@H](CN(c3cccc(-c4cnn(C5CC5)c4)c3)C(=O)[C@H]3CC[C@H](OC(=O)NCCO)CC3)CC2)cn1 [Compound 6.08, trans-4-((3-(1-Cyclopropyl-1H-pyrazol-4-yl)phenyl)((trans-4-(6-(dimethylamino)pyridin-3-yl)cyclohexyl)methyl)carbamoyl)cyclohexyl (2-hydroxyethyl)carbamate] here?
Answer: ≤ 250 nM
